The values below come from patent publication US9302991B2, “Arylamide derivatives as TTX-S blockers” (RaQualia Pharma Inc., priority 2010, dated 2016).

Assay [1] has as its target T1, human Nav1.3 channels (Homo sapiens, UniProt Q9NY46).
T1 construct: expressed in transfected cells; host or cells: HEK293
Put plainly: FRET assay, human Nav1.3 (EFS on FDSS). In kind it is cell-based. The note with it: HEK293 cells expressing human Nav1.3, read-out: IC50 against Nav1.3. An outline of the steps: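 HEK293 cells expressing the channel, loaded with 10 microM CC2-DMPE then 15 microM DiSBAC2(3) plus 0.555 mM VABSC-1 in pH 7.4 HEPES buffer at room temperature. Membrane potential changes evoked by electrical field stimulation after compound addition; IC50 from 440 nm-normalized FRET ratios.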

Assay [2] deals with T2, human Nav1.7 channels (Homo sapiens, UniProt Q15858).
T2 construct: expressed in transfected cells; host or cells: CHO
T2 sequence (Q15858 whole entry): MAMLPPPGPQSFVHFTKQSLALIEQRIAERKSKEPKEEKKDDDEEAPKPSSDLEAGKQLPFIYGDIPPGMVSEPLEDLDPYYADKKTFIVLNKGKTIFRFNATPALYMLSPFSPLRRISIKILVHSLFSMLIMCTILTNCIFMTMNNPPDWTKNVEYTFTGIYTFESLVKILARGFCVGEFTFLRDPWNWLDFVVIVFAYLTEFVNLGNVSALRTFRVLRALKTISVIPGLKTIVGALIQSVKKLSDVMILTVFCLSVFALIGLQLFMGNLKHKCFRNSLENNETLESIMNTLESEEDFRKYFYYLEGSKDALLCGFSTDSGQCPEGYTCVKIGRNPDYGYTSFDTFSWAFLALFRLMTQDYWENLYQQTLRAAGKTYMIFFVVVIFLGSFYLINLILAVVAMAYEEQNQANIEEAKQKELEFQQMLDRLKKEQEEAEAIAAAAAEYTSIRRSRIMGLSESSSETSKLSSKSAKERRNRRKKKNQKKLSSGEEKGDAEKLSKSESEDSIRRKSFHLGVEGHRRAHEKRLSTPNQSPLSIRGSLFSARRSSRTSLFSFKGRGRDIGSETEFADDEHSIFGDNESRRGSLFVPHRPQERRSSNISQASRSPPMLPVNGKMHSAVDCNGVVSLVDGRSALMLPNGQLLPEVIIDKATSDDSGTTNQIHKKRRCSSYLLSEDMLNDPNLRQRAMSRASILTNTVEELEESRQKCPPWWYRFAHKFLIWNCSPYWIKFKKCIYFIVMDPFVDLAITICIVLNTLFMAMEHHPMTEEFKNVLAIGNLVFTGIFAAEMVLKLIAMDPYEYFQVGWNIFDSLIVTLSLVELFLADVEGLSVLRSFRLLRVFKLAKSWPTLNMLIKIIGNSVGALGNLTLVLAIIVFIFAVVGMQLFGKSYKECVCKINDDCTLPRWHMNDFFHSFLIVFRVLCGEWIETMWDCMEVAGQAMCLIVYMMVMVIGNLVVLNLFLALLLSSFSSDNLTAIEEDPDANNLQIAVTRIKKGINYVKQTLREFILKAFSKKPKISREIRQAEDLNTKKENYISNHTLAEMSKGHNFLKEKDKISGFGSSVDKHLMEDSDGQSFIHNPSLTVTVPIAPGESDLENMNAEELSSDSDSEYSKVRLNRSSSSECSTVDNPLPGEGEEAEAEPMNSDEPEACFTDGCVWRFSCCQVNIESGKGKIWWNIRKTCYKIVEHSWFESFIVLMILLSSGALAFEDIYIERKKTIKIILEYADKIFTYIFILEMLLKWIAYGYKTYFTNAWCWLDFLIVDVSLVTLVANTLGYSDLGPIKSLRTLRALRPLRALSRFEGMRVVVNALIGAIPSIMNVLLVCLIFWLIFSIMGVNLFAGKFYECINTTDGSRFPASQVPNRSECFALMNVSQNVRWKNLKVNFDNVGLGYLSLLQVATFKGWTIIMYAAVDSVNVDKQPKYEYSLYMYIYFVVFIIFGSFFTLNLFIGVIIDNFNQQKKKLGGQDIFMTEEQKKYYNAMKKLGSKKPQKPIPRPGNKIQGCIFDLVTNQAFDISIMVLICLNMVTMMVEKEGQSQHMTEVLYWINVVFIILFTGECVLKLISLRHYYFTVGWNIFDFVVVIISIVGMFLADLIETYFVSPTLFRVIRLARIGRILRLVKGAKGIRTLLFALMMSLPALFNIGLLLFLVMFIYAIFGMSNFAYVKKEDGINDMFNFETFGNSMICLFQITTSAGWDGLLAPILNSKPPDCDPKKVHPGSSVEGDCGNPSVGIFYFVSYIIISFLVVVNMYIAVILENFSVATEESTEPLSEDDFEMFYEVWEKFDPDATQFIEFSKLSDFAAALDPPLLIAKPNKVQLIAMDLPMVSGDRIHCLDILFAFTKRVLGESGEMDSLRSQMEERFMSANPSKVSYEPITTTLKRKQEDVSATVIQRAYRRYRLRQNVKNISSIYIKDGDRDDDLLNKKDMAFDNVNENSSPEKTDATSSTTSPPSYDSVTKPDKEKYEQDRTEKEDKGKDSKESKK
Put plainly: FRET assay, human Nav1.7 (EFS on FDSS). In kind it is cell-based. The note with it: CHO cells expressing human Nav1.7, read-out: IC50 against Nav1.7. Put shortly: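 IC50 was derived from normalized 440 nm fluorescence ratios of the EFS-evoked membrane-potential response read on FDSS. Recombinant CHO cells were sequentially dye-loaded with coumarin/oxonol FRET pair at room temperature in pH 7.4 buffer before compound addition.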

A value given as a limit tells only on which side of the number the result lay.

T1 sequence (Q9NY46 whole entry): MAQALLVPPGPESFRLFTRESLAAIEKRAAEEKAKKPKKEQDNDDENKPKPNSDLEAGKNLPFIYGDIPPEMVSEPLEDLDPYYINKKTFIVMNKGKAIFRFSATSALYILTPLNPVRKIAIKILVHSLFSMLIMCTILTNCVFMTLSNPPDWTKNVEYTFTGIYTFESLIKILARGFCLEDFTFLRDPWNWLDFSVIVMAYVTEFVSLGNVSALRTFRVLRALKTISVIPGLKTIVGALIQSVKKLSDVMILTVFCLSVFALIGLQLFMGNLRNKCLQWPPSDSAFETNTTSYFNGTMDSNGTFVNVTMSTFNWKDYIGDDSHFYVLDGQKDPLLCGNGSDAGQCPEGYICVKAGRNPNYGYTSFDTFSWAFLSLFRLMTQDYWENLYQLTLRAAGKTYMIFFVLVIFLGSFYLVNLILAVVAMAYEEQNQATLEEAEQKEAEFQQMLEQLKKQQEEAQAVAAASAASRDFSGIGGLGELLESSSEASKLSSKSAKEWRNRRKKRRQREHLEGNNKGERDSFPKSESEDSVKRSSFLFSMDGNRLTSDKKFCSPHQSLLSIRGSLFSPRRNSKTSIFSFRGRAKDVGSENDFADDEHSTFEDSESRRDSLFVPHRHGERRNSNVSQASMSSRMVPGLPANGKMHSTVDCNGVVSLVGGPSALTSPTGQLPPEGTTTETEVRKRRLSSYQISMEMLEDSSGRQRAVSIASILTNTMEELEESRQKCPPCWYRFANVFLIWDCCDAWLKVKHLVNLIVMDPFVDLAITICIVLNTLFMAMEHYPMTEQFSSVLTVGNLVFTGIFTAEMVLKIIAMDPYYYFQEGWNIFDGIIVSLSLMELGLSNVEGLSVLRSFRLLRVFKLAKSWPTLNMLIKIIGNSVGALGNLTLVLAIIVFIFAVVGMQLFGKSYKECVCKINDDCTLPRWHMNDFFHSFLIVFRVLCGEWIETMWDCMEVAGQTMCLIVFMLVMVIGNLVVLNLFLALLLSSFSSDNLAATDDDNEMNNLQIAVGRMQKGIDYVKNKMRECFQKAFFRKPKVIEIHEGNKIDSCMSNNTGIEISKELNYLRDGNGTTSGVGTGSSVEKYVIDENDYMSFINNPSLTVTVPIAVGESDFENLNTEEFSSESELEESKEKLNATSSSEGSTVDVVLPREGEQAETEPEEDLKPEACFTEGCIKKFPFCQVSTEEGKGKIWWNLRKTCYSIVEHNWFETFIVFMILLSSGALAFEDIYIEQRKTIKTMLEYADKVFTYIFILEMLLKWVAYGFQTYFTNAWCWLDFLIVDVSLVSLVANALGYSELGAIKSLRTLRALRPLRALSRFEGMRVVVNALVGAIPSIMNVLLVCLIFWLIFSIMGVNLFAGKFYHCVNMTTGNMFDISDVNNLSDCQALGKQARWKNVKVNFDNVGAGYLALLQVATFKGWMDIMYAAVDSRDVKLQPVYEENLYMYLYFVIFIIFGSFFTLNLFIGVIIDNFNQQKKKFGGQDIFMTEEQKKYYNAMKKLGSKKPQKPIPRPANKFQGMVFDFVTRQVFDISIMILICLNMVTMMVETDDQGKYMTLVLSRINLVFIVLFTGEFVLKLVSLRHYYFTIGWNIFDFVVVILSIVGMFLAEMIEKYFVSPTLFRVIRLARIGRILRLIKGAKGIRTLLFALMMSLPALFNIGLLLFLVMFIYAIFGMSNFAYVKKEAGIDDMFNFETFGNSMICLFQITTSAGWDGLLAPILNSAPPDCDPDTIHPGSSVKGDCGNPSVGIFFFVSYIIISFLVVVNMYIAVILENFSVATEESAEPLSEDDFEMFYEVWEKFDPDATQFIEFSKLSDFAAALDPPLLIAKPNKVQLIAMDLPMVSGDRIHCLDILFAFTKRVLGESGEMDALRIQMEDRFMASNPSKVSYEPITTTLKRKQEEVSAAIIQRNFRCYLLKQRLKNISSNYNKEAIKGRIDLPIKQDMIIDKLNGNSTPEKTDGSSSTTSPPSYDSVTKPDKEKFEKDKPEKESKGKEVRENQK

Usually IC50 stands for the concentration that inhibits the measured activity by half. In the case of `CC(=O)Nc1cc(C(=O)NCc2cnc(OCC(F)(F)C(F)F)c(C)c2)cc(C)n1` [Example 944, 2-acetamido-6-methyl-N-((5-methyl-6-(2,2,3,3-tetrafluoropropoxy)pyridin-3-yl)methyl)isonicotinamide], the IC50 in assay [1] and in assay [2] was under 1000 nM each time.
On to `Cc1cc(C(=O)NCc2cnc(OCC(F)(F)C(F)F)c(C)c2)cc(NC(=O)C(C)C)n1` [Example 945, 2-isobutyramido-6-methyl-N-((5-methyl-6-(2,2,3,3-tetrafluoropropoxy)pyridin-3-yl)methyl)isonicotinamide], for which the IC50 in assay [1] and in assay [2] was under 1000 nM each time.
`Cc1cc(C(=O)NCc2cnc(OCC(F)(F)C(F)F)c(C)c2)cc(NC(=O)C2CC2)n1` [Example 946, 2-(cyclopropanecarboxamido)-6-methyl-N-((5-methyl-6-(2,2,3,3-tetrafluoropropoxy)pyridin-3-yl)methyl)isonicotinamide]: the IC50 in assay [1] and in assay [2] was under 1000 nM throughout.
As for `Cc1cc(C(=O)NCc2cnc(OCC(F)(F)C(F)F)c(C)c2)nc(NC(=O)C2CC2)n1` [Example 947, 2-(cyclopropanecarboxamido)-6-methyl-N-((5-methyl-6-(2,2,3,3-tetrafluoropropoxy)pyridin-3-yl)methyl)pyrimidine-4-carboxamide], the IC50 in assay [1] and in assay [2] was under 1000 nM throughout.
Take `Cc1cc(C(=O)NCc2cnc(OCC(F)(F)F)c(C)c2)cc(NC(=O)CC2CC2)n1` [Example 954, 2-(2-cyclopropylacetamido)-6-methyl-N-((5-methyl-6-(2,2,2-trifluoroethoxy)pyridin-3-yl)methyl)isonicotinamide]: the IC50 in assay [1] and in assay [2] was under 1000 nM in each case.
As to `Cc1cc(C(=O)NCc2cccc(OC(F)(F)F)c2)cc(NC(=O)CC2CC2)n1` [Example 962, 2-(2-cyclopropylacetamido)-6-methyl-N-(3-(trifluoromethoxy)benzyl)isonicotinamide], the IC50 in assay [1] and in assay [2] was under 1000 nM each time.
In the case of `Cc1cc(C(=O)NCc2cc(C(F)(F)F)ccc2F)cc(NC(=O)C2CC2)n1` [Example 975, 2-(cyclopropanecarboxamido)-N-(2-fluoro-5-(trifluoromethyl)benzyl)-6-methylisonicotinamide], the IC50 in assay [1] and in assay [2] was under 1000 nM throughout.
